In patent US5824299A, “Modulation of endothelial cell proliferation with IP-10” (President & Fellows of Harvard College, priority 1995, dated 1998):

Target: T1, murine IP10-AP (IP-10 alkaline phosphatase fusion protein) (UniProt P05187+P17515)
T1 construct: made in house; host or cells: NIH-3T3 clone 18.G5 (conditioned medium)
Experiment: glycosaminoglycan inhibition of IP10-AP binding to A20 B cells
Conditions: 15 nM mIP10-AP, 2 hours on ice; for inhibition of IP10-AP binding: at a concentration 100× below 1 mg/ml
Experimental: 107 A20 cells were incubated with 15 nM mIP10-AP in the presence of the indicated concentrations of heparin (H), heparan sulfate (HS), chondroitin sulfate B (CSB) and chondroitin sulfate A (CSA) for 2 hours on ice. Cells were then washed and bound IP10-AP assayed.
Binding Assays. For non-adherent cells, […] were washed 1× with ice-cold binding buffer (HBSS/10 mM Hepes/0.1% ETSA) and resuspended in the indicated concentration of IP10-AP and competitors in a total of […] ice-cold binding buffer. Binding was carried out for 2 hrs on ice with occasional mixing. Cells were washed 5× with ice cold binding buffer by repeated centrifugation at 4° C. Cell bound AP activity was determined by lysing cells in […] 10 mM Tris (pH 8.0)/1% Triton X-100, heating at 65° C. for 10 min to inactivate cellular alkaline phosphatase, and then centrifuging at 14,000×g for 10 min. 50 ml of the soluble lysate was then mixed with 50 ml 2× SEAP buffer in a 96 well plate at room temperature and the colormetric product was assayed in a kinetic plate reader at A405. For adherent cells with higher numbers of binding sites, binding was determined in 6 well cluster plates. Cells were washed 2× with ice-cold binding buffer and incubated with the indicated concentration of IP10-AP and competitor in a total of 500 ml of ice-cold binding buffer for 2 hrs in the cold room on a rocker platform. […] Non-specific binding was determined in one of two ways. For the calculation of the equilibrium constant, non-specific binding was determined by adding […] at each concentration of IP10-AP and performing the binding experiments in parallel exactly as described above. Specific binding was determined by subtracting background from total binding. Specific binding data was analyzed with the binding equation B=(Bmax×F)/(Kd+F) (where B is bound ligand and F is free ligand) (28) using the program KaleidaGraph on a Macintosh computer. […] 125I-IP10 binding to cells was performed essentially as described above for IP10-AP binding except the cell pellet with bound IP-10 was counted in a gamma-counter. […]

T1 sequence (P17515+P05187 fused): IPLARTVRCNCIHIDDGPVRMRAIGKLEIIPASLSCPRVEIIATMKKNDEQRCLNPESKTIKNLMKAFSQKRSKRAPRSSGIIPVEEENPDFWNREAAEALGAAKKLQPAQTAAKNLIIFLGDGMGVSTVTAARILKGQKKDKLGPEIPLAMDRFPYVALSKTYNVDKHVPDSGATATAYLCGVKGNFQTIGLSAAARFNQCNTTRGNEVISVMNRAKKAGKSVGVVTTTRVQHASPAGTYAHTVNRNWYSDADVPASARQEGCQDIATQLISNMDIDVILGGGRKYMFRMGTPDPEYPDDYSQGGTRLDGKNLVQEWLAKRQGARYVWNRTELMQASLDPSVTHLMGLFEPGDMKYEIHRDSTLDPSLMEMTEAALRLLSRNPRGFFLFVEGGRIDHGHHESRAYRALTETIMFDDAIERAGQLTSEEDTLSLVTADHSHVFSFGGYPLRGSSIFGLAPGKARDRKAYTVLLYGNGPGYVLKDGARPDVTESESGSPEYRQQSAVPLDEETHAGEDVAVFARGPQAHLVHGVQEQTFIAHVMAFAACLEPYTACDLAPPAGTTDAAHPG

chondroitin sulfate A
effect on IP10-AP binding (1 mg/ml): no effect

heparan sulfate
inhibition of IP10-AP binding: complete inhibition

heparin
inhibition of IP10-AP binding: complete inhibition
